# From US20210301038A1, “POLYSIALIC ACID AND DERIVATIVES THEREOF, PHARMACEUTICAL COMPOSITION AND METHOD OF PRODUCING POLYSIALIC ACID” (Medizinische Hochschule Hannover (MHH), priority 2018, published 2021)
# Assays:
# [1] = test system: mPFC slices of AAV-GFP-Tau[R406W] infected mice; test: mPFC LTP in mice overexpressing GFP-Tau[R406W]; assay type: cell-based, mouse; conditions: bath application of 0.3 μM DP12; 50-60 min after induction
# Procedure: Prefrontal slices (400 μm) were transferred to a submerged-type recording MC membrane chamber (volume 2 ml; Scientific Systems Design Inc., Mississauga, Ontario, Canada) perfused with oxygenated recording ACSF at a flow rate of 4 ml/min and maintained at room temperature (22-25° C.), unless stated otherwise in the “Results”-section given below. Field EPSPs were evoked and recorded using thin-walled glass electrodes (borosilicate glass, wall thickness 0.188, length 100, and outer diameter 1.5 mm, Hilgenberg, Malsfeld, Germany) filled with recording aCSF in 400 μm-thick mPFC slices. […]
# Before LTP induction, basal synaptic transmission was recorded in each slice and the relationship between stimulus intensity and fEPSP slope was measured. […] The supramaximal slope was determined by gradually increasing the stimulation intensity until a population spike in the fEPSP became first visible. […]
# LTP was induced by application of five trains of theta-burst stimulation (TBS) with an inter-theta-train interval of 20 s (Brennaman et al., 2011). […] For calculation of the LTP level, the mean fEPSP slope was measured between 50-60 min after TBS delivery, and it was then normalized to mean baseline fEPSP slope during 0-10 min before TBS. Stimulus artifacts in representative fEPSP examples in figures were blanked to facilitate the perception of fEPSPs recorded in the mPFC. […]
# [2] = test system: AAV-GFP-Tau[R406W]-injected mice; test: Recency test in AAV-GFP-Tau[R406W]-injected mice; assay type: in vivo, mouse; conditions: intranasal delivery
# Text: AAVs were produced using the AAV helper free packaging systems AAV-DJ (Cell Biolabs, Inc.). In short, HEK293 cells were transfected with the pAAV-DJ and pHelper constructs along with the viral expression constructs (pAAV vectors) encoding either eGFP or eGFP-Tau[R406W] under the control of a synapsin promotor. After three days, viruses were harvested using freeze-thaw cycles. After lysis, non-viral DNA is digested with Benzonase, and lysate is filtered through a 0.22 μm filter, washed with PBS and concentrated using Amicon Ultra-15 Centrifugal Filter Units with a cut off of 50 kDa. Titers were determined to be >10^10 GC/ml using quantitative Real-Time PCR with primers for the WPRE element in the viral genome.
# For stereotaxic delivery of AAVs, mice were anesthetized in a closed chamber using isoflurane (1 ml for 30 s). […]
# Animals were randomly assigned to treatment groups using a randomized block design to counterbalance differences in age. […] Novelty detection was evaluated by calculating the discrimination ratio as follows: [novel object time−familiar object time]/[novel object time+familiar object time]×100%. In the recency test, the discrimination ratio was calculated as follows: [least recent object time−most recent object time]/[least object time+most recent object time]×100%. […]
# [3] = test system: CA3-CA1 synapses in slices from 5×FAD mice; test: LTP in CA3-CA1 synapses in slices from 5×FAD mice; assay type: cell-based, mouse; conditions: bath application 1 μg/ml (approx. 0.3 μM)
# Procedure: LTP was induced by application of five trains of theta-burst stimulation (TBS) with an inter-theta-train interval of 20 s (Brennaman et al., 2011). Each train consisted of 8 bursts delivered at 5 Hz. Each burst consisted of four pulses delivered at 100 Hz. Duration of pulses was 0.2 ms. For calculation of the LTP level, the mean fEPSP slope was measured between 50-60 min after TBS delivery, and it was then normalized to mean baseline fEPSP slope during 0-10 min before TBS. Stimulus artifacts in representative fEPSP examples in figures were blanked to facilitate the perception of fEPSPs recorded in the mPFC. Recording and analysis of LTP in St8Sia4^−/− mice was performed in a blind manner.
# Finally, we tested if DP12 would have an effect in the 5×FAD mouse model of AD associated with amyloidosis and upregulation of extracellular glutamate and signaling through extra synaptic GluN2B receptors. Using a special slice incubation chamber with improved oxygen supply, we were able to induce LTP in CA3-CA1 synapses in slices from 5×FAD mice (FIG. 8).
# 5×FAD mice = test: Recency test (increased difficulty) in 5×FAD mice; assay type: in vivo, mouse; conditions: intranasal, 0.5 mg/kg DP12 or equimolar
# Procedure: The recency test comprised of two encoding phases followed by a retrieval phase (modified from Nelson et al., 2011). The interval between the encoding phases was 1 h, and the interval between the second encoding phase and the retrieval phase was 10 min, except for experiments in 5×FAD mice when both intervals were 90 min to make the task more difficult. In the first encoding phase, animals were placed into the open field arena and allowed to explore a pair of identical objects for 10 min. Then, a different pair of identical objects was presented in the second encoding phase (10 min total exploration time). During the retrieval phase, two different objects, one object from each encoding phase, were placed into the apparatus and animals were given 10 min to explore them.
# Animals were randomly assigned to treatment groups using a randomized block design to counterbalance differences in age. The time of the day when tests were performed for different animals was also counterbalanced between treatment groups using a randomized block design. All measurements and statistical analyses were performed performed blindly, i.e. the tubes containing drugs/vehicle were coded. Exploration was defined as the animal approaching the object at a distance of less than 2 cm. The animal climbing onto the object with both hind- and forelimbs was not considered as exploration. In the same trial, objects were counterbalanced, and between trials, the placements of novel and familiar objects were changed. The objects used in the novel object recognition test were not employed in the recency test. Novelty detection was evaluated by calculating the discrimination ratio as follows: [novel object time−familiar object time]/[novel object time+familiar object time]×100%. In the recency test, the discrimination ratio was calculated as follows: [least recent object time−most recent object time]/[least object time+most recent object time]×100%. Unreliable measurements (about 10%), when animals spent in total ≤10 s near to both objects, were excluded from analysis.
# As the recency test was consistently used for analysis of DP12 effects in other mouse models, it was further investigated whether 13- to 14-month-old 5×FAD mice are impaired in this form of memory. In this series of experiments, the intervals between each session during recency test were increased to 90 min to increase the difficulty to recall the temporal order of the two objects shown in the arena (FIG. 12(A)). […] To verify whether DP12 or avDP10-9OAc may improve cognitive function in the 5×FAD model of AD, these compounds or a vehicle (H2O) were intranasally delivered in the same cohort of 5×FAD mice before multiple recency test sessions (separated by 4 day-interval). The numbers of mice in each treatment group during one session were counterbalanced and each mouse received in a random order both drugs and the vehicle. […] In contrast, vehicle-treated 5×FAD mice explored the two objects equally (FIG. 12(C)).
# [4] = 2 hours before test, 90 min intervals
substance,measurement,setting,value
(α(2→8)Neu5Ac)12 [DP12],rescue of impaired mPFC LTP,[1],fully rescue LTP
same,rescue of impaired recent object recognition,[2],fully rescued
same,LTP levels 50-60 min after theta-burst stimulation,[3],strongly increased
same,exploration of least recent versus most recent object in the retrieval phase,5×FAD mice; [4],clear preference for the least recently explored object
same,object discrimination (discrimination ratio) compared to vehicle,5×FAD mice; [4],significant difference in object discrimination
same,number of mice showing discrimination more than 20%,5×FAD mice; n=11 5×FAD mice,10 of 11
